Results published in patent US4029731A, “Aminophenyltetralin compounds” (Pfizer Inc., priority 1976, dated 1977).
Structures can show the parent of a compound that is named as a salt.

Experiments:
Assay type in all cases: in vivo
[1] = system: reserpine-induced hypothermia in the mouse; test: Reversal of reserpine-induced hypothermia in the mouse; conditions: 32 mg./kg. i.p., 2 hours after dosing; reserpine 2 mg./kg. s.c. 18 hours before; saline control 25.1° ± 3.2° C.
Protocol: The 1-amino-4-phenyltetraline final products of Examples III-IX were tested for antidepressant activity by measuring their ability to reverse reserpine-induced hypothermia in the mouse according to the procedure described by B.M. Askew in Life Science, Vol. 2, p. 725 (1963). In this test, all the animals were individually housed in plastic chambers with a cardboard bottom. The mice were injected with reserpine subcutaneously at 2 mg./kg. and retained at an ambient temperature of 20° C. for a period of 18 hours. At this point, their rectal temperatures were initially ascertained and immediately thereafter they were divided into groups of 5-20 animals for testing purposes. Each group then received either saline as a control or the compound to be tested at a dose level of 32 mg./kg., administered intraperitoneally, and the resulting rectal temperatures were measured two hours later. In the table below, the entries are reported as mean rectal temperatures for each compound at the 2-hour mark, together with the number of animals tested in each particular group.

[2] = Toxic / untoward side effects on administration; conditions: rats, i.p., 3.2 mg./kg. to 32 mg./kg.
From the text: (§1) As previously indicated, the 1-amino-4-phenyltetralin compounds of this invention (in the form of their trans-isomers) are all readily adapted to therapeutic use as psychotropic agents, particularly in view of their potent antidepressant and psychomotor stimulant properties. […] The other compounds of this invention also cause similar results. Furthermore, all the herein described trans-isomers of this invention can be administered as psychotropic agents by either the oral or parenteral routes of administration, for the present purposes at hand, without causing any significant untoward pharmacological side effects to occur in the subject to whom they are so administered. In general, these psychotropic compounds are normally administered in dosages ranging from about 0.3 mg., to about 10 mg. per kg. of body weight per day, although variations will necessarily occur depending upon the weight and conditions of the subject being treated and the particular route of administration chosen.

[3] = system: motor activity in mice; avoidance behavior in rats; test: Psychomotor stimulant activity (motor activity in mice; Sidman avoidance in rats); conditions: as the hydrochloride salt
From the text: On the other hand, the activity of the compounds of the present invention, as psychomotor stimulants, is based on a variety of tests, including (1) a study of their motor activity in mice and (2) a measurement of their ability to influence the loss of avoidance behavior in rats trained on a non-discriminated (Sidman) avoidance schedule.

[4] = system: spontaneous motor activity in mice; test: Spontaneous motor activity in mice (actophotometer activity counts)
Protocol: A total of seven mice was employed at each dose level tested (viz., at 0.32, 1.0, 3.2, 10 and 32 mg./kg., i.p., respectively) and these mice were separated one to an activity cage. After an initial one-half hour exposure period (for acclimation purposes), each animal in the cage was treated with a sample of the drug intraperitoneally and immediately thereafter returned to said cage, with activity counts every one-half hour being recorded from that point on.

[5] = system: non-discriminated (Sidman) avoidance behavior rats; test: Non-discriminated (Sidman) avoidance behavior in rats; conditions: 5 mg./kg. and 10 mg./kg. i.p.
From the text: Eight (8) mature male rats were trained in Lehigh Valley automatic multiple-operant conditioning chambers to avoid a 2.0 mA electric shock that would last for 0.75 second, or terminate sooner if the rat lever became activated during the shock. In these tests, lever presses postponed the onset of shock for an initial period of 30 seconds, while only 10 seconds elapsed between shocks if no intervening response was elicited. The rats were run for a 40-minute control period before receiving the drug and then for approximately 2.5 hours after each treatment.

[6] = system: rats; test: Antidepressant and psychomotor stimulant activity in rats, intraperitoneal; conditions: i.p., 3.2 mg./kg. to 32 mg./kg.
From the text: as §1

CN[C@@H]1CC[C@@H](c2ccccc2)c2ccccc21 [Trans-d-isomer of Example III, trans-d-N-methyl-4-phenyl-1,2,3,4-tetrahydro-1-naphthylamine as the hydrochloride]
Mean Rectal Temperature, Temp. (° C.) ±S.D. [1]: 34.1 ± 0.7 °C
signs of toxic side effects [2]: without showing any substantial signs of toxic side effects
duration of motor stimulant activity [3]: long duration of motor stimulant activity
onset of action [3]: rapid onset of action
potency as psychomotor stimulant compared with methylphenidate [3]: comparable in potency to methylphenidate
duration of effect compared with d-amphetamine sulfate ([4]; 10 mg./kg. i.p. vs d-amphetamine sulfate at 3.2 mg./kg.): even more prolonged in its effect than did that of d-amphetamine sulfate
effect on activity counts compared with d-amphetamine sulfate ([4]; 10 mg/kg. i.p. vs d-amphetamine sulfate at 3.2 mg./kg.): more pronounced than that of d-amphetamine sulfate
effect on activity counts compared with methylphenidate ([4]; 10 mg/kg. i.p. vs methylphenidate at 10 mg./kg.): surpassing even that of methylphenidate
activity counts ([4]; 10 mg/kg.(i.p.), 30-60 minutes after treatment): markedly elevated the activity counts
duration of drug effect after administration [5]: approximately one and a half
start of drug effect [5]: ≤ 20 min
increase of response rates over normal pre-drug control levels ([5]; four out of eight rats): 2-6 times
response rates ([5]; four out of eight rats): moderate to marked increase in response rates
increase of response rates over pre-drug control levels ([5]; two other rats): about 1.5 times
antidepressant and psychomotor stimulant activity [6]: marked antidepressant and psychomotor stimulant activity
